In ChEMBL document CHEMBL4330114 (Bioorg Med Chem, 2019):
In brackets after ≈: the same amount, converted by molar mass.

What was measured:
[1] = Selectivity index, ratio of CC50 for mock-infected human MT4 cells to EC50 for HIV2 ROD infected in human MT4 cells; format: toxicity, cell-based; conditions: read-out: Selectivity Index
[2] = system: Human immunodeficiency virus 1; assay: Antiviral activity against wild type HIV1 3B infected in human MT4 cells assessed as inhibition of virus-induced cytopathic effect after 5 days by MTT assay; format: functional, organism-based; conditions: Human immunodeficiency virus 1, 3B, MT4, 120 h
[3] = Selectivity index, ratio of CC50 for mock-infected human MT4 cells to EC50 for wild type HIV1 3B infected in human MT4 cells; format: toxicity, cell-based; conditions: read-out: Selectivity Index
[4] = biological target: Human immunodeficiency virus type 1 reverse transcriptase (Human immunodeficiency virus 1, UniProt Q72547); assay: Inhibition of recombinant wild type HIV1 reverse transcriptase assessed as reduction in biotin-dUTP incorporation using poly(A)/oligo(dT)15 as template/primer after 1 hr by ELISA
[5] = Cytotoxicity against mock-infected human MT4 cells assessed as reduction in cell viability after 5 days by MTT assay; format: cell-based
[6] = system: Human immunodeficiency virus 2; assay: Antiviral activity against HIV2 ROD infected in human MT4 cells assessed as inhibition of virus-induced cytopathic effect after 5 days by MTT assay; conditions: Human immunodeficiency virus 2, ISOLATE ROD, MT4, 120 h
[7] = system: Human immunodeficiency virus 1; assay: Antiviral activity against HIV1 RES056 containing reverse transcriptase K103N + Y181C mutant infected in human MT4 cells assessed as inhibition of virus-induced cytopathic effect after 5 days by MTT assay; format: functional, organism-based; conditions: Human immunodeficiency virus 1, RES056, MT4, 120 h
[8] = Selectivity index, ratio of CC50 for mock-infected human MT4 cells to EC50 for HIV1 RES056 RES056 containing reverse transcriptase K103N + Y181C mutant infected in human MT4 cells; format: toxicity, cell-based; conditions: read-out: Selectivity Index
[9] = system: Human immunodeficiency virus 1; assay: Potency index, ratio of lamivudine EC50 to compound EC50 for antiviral activity against wild type HIV1 3B infected in human MT4 cells; format: functional
[10] = Aqueous solubility of the compound at phosphate buffer of pH 2.0 after overnight incubation by HPLC-UV analysis; format: physicochemical
[11] = Aqueous solubility of the compound in phosphate buffer of pH 7.4 after overnight incubation by HPLC-UV analysis; format: physicochemical
[12] = Aqueous solubility of the compound in water at pH 7.0 after overnight incubation by HPLC-UV analysis; format: physicochemical
[13] = Half life of the compound in phosphate buffer of pH 2.0 by HPLC-UV analysis; format: physicochemical
[14] = Half life of the compound in phosphate buffer of pH 7.4 by HPLC-UV analysis; format: physicochemical
[15] = Solubility of the compound; format: physicochemical

## N#Cc1cc(Cl)cc(Oc2c(C(F)(F)F)ccn(CC(=O)Nc3ccc(C(F)(F)F)cc3)c2=O)c1
[1]
  selectivity ratio: < 1
[2]
  EC50: 12.3 µM
[3]
  selectivity ratio: 7
[4]
  IC50: 30.1 µM
[5]
  CC50 at 120 h: 82.3 µM
[6]
  EC50: > 82.3 µM
[7]
  EC50: > 82.3 µM
[8]
  selectivity ratio: < 1

## N#Cc1cc(Cl)cc(Oc2c(C(F)(F)F)ccn(CC(=O)Nc3ncn[nH]3)c2=O)c1
[1]
  selectivity ratio: > 2
[2]
  EC50: 0.0548 µM
[3]
  selectivity ratio: > 5200
[4]
  IC50: 0.522 µM
[9]
  Ratio EC50: 234
[5]
  CC50 at 120 h: > 285 µM
[6]
  EC50: 182 µM
[7]
  EC50: 0.196 µM
[8]
  selectivity ratio: > 1450

## N#Cc1cc(Cl)cc(Oc2c(C(F)(F)F)ccn(CC(=O)Nc3ccc(F)cc3)c2=O)c1
[1]
  selectivity ratio: 1
[2]
  EC50: 188 µM
[3]
  selectivity ratio: > 1
[4]
  IC50: 72 µM
[5]
  CC50 at 120 h: > 269 µM
[6]
  EC50: > 269 µM
[7]
  EC50: > 269 µM
[8]
  selectivity ratio: 1

## Cn1c(Cn2ccc(C(F)(F)F)c(Oc3cc(Cl)cc(C#N)c3)c2=O)nn(COP(=O)(O)O)c1=O
[10]
  solubility: 4220 µg/mL (≈ 7870 µM)
[1]
  selectivity ratio: 1
[2]
  EC50: 0.262 µM
[11]
  solubility: 5190 µg/mL (≈ 9680 µM)
[3]
  selectivity ratio: > 893
[4]
  IC50: 0.93 µM
[12]
  solubility: 4560 µg/mL (≈ 8510 µM)
[13]
  half-life: > 1440 min
[14]
  half-life: > 1440 min
[5]
  CC50 at 120 h: > 234 µM
[6]
  EC50: > 234 µM
[7]
  EC50: > 234 µM
[8]
  selectivity ratio: 1

## N#Cc1cc(Cl)cc(Oc2c(C(F)(F)F)ccn(CC(=O)Nc3cn[nH]c3)c2=O)c1
[1]
  selectivity ratio: ≤ 1
[2]
  EC50: 0.0595 µM
[3]
  selectivity ratio: 775
[4]
  IC50: 1.25 µM
[5]
  CC50 at 120 h: 46.1 µM
[6]
  EC50: ≥ 33.4 µM
[7]
  EC50: 0.343 µM
[8]
  selectivity ratio: 134

## N#Cc1cc(Cl)cc(Oc2c(C(F)(F)F)ccn(CC(=O)Nc3ccn[nH]3)c2=O)c1
[1]
  selectivity ratio: 1
[2]
  EC50: 6.34 µM
[3]
  selectivity ratio: ≥ 7
[4]
  IC50: 19.4 µM
[5]
  CC50 at 120 h: ≥ 41.9 µM
[6]
  EC50: 134 µM
[7]
  EC50: > 41.9 µM
[8]
  selectivity ratio: 1

## CS(=O)(=O)c1ccc(NC(=O)Cn2ccc(C(F)(F)F)c(Oc3cc(Cl)cc(C#N)c3)c2=O)cc1
[1]
  selectivity ratio: < 1
[2]
  EC50: 42.1 µM
[3]
  selectivity ratio: 3
[4]
  IC50: 1 µM
[5]
  CC50 at 120 h: 112 µM
[6]
  EC50: > 112 µM
[7]
  EC50: > 112 µM
[8]
  selectivity ratio: < 1

## N#Cc1cc(Cl)cc(Oc2c(C(F)(F)F)ccn(CC(=O)Nc3ccc([N+](=O)[O-])cc3)c2=O)c1
[1]
  selectivity ratio: > 2
[2]
  EC50: 1.4 µM
[3]
  selectivity ratio: > 181
[4]
  IC50: 1.27 µM
[5]
  CC50 at 120 h: > 254 µM
[6]
  EC50: 145 µM
[7]
  EC50: > 254 µM
[8]
  selectivity ratio: 1

## N#Cc1cc(Cl)cc(Oc2c(C(F)(F)F)ccn(CC(=O)Nc3cccnc3)c2=O)c1
[1]
  selectivity ratio: < 1
[2]
  EC50: > 111 µM
[3]
  selectivity ratio: < 1
[4]
  IC50: 133 µM
[5]
  CC50 at 120 h: 111 µM
[6]
  EC50: > 111 µM
[7]
  EC50: > 111 µM
[8]
  selectivity ratio: < 1

## N#Cc1cc(Cl)cc(Oc2c(C(F)(F)F)ccn(CC(=O)Nc3ccc(Br)cc3)c2=O)c1
[1]
  selectivity ratio: < 1
[2]
  EC50: > 87.9 µM
[3]
  selectivity ratio: < 1
[4]
  IC50: 92.5 µM
[5]
  CC50 at 120 h: 87.9 µM
[6]
  EC50: > 87.9 µM
[7]
  EC50: > 87.9 µM
[8]
  selectivity ratio: < 1

## CC(C)OC(=O)OCn1nc(Cn2ccc(C(F)(F)F)c(Oc3cc(Cl)cc(C#N)c3)c2=O)n(C)c1=O
[10]
  solubility: 14 µg/mL (≈ 25.8 µM)
[1]
  selectivity ratio: > 2
[2]
  EC50: 1.22 µM
[11]
  solubility: 29 µg/mL (≈ 53.5 µM)
[3]
  selectivity ratio: > 189
[4]
  IC50: 2.11 µM
[12]
  solubility: 27 µg/mL (≈ 49.8 µM)
[5]
  CC50 at 120 h: > 231 µM
[6]
  EC50: 152 µM
[7]
  EC50: > 231 µM
[8]
  selectivity ratio: 1

## N#Cc1cc(Cl)cc(Oc2c(C(F)(F)F)ccn(CC(=O)Nc3ccncc3)c2=O)c1
[1]
  selectivity ratio: < 1
[2]
  EC50: 32.4 µM
[3]
  selectivity ratio: 4
[4]
  IC50: 32.5 µM
[5]
  CC50 at 120 h: 133 µM
[6]
  EC50: > 133 µM
[7]
  EC50: > 133 µM
[8]
  selectivity ratio: < 1

## N#Cc1cc(Cl)cc(Oc2c(C(F)(F)F)ccn(CC(=O)Nc3cnccn3)c2=O)c1
[1]
  selectivity ratio: 1
[2]
  EC50: 29.4 µM
[3]
  selectivity ratio: ≥ 6
[4]
  IC50: 63.4 µM
[5]
  CC50 at 120 h: ≥ 183 µM
[6]
  EC50: > 183 µM
[7]
  EC50: > 183 µM
[8]
  selectivity ratio: 1

## Cn1c(Cn2ccc(C(F)(F)F)c(Oc3cc(Cl)cc(C#N)c3)c2=O)n[nH]c1=O [DORAVIRINE]
[2]
  EC50: 0.013 µM
[4]
  IC50: 0.019 µM
[5]
  CC50 at 120 h: > 294 µM
[6]
  EC50: 142 µM
[7]
  EC50: 0.015 µM

## O=C1Nc2ccc(Cl)cc2[C@@](C#CC2CC2)(C(F)(F)F)O1 [EFAVIRENZ]
[2]
  EC50: 0.007 µM
[5]
  CC50 at 120 h: > 3.16 µM
[7]
  EC50: 0.244 µM

## Cc1cc(C#N)cc(C)c1Oc1nc(Nc2ccc(C#N)cc2)nc(N)c1Br [ETRAVIRINE]
[15]
  solubility: < 1 µg/mL

## Nc1ccn([C@@H]2CS[C@H](CO)O2)c(=O)n1 [LAMIVUDINE]
[2]
  EC50: 12.8 µM
[3]
  selectivity ratio: > 7
[5]
  CC50 at 120 h: > 87.3 µM
[6]
  EC50: ≥ 17.1 µM
[7]
  EC50: 7.77 µM
[8]
  selectivity ratio: > 11
